Results: the NIST ThermoML archive (doi:10.1021/acs.jced.5b00599)

Details: Gas, Oscillating disk viscometry

O [water]
Details	viscosity [mPa·s]
297.33 K, Mass density=0.092 kg/m3	0.00963
297.76 K, Mass density=0.023 kg/m3	0.009649
298.16 K, Mass density=0.092 kg/m3	0.009654
298.69 K, Mass density=0.129 kg/m3	0.009676
298.99 K, Mass density=0.129 kg/m3	0.009697
299.38 K, Mass density=0.018 kg/m3	0.009722
300.35 K, Mass density=0.018 kg/m3	0.009746
301.55 K, Mass density=0.023 kg/m3	0.009792
310.44 K, Mass density=0.129 kg/m3	0.01008
311.12 K, Mass density=0.023 kg/m3	0.01011
311.13 K, Mass density=0.092 kg/m3	0.0101
311.52 K, Mass density=0.018 kg/m3	0.01013
325.16 K, Mass density=0.092 kg/m3	0.01059
325.62 K, Mass density=0.023 kg/m3	0.01063
326.81 K, Mass density=0.129 kg/m3	0.01064
327.19 K, Mass density=0.018 kg/m3	0.01067
338.27 K, Mass density=0.129 kg/m3	0.01104
338.47 K, Mass density=0.023 kg/m3	0.01107
339.05 K, Mass density=0.018 kg/m3	0.01109
339.49 K, Mass density=0.092 kg/m3	0.01109
352.03 K, Mass density=0.092 kg/m3	0.01154
352.69 K, Mass density=0.018 kg/m3	0.01158
352.79 K, Mass density=0.129 kg/m3	0.01156
352.84 K, Mass density=0.023 kg/m3	0.01158
365.89 K, Mass density=0.092 kg/m3	0.01204
366.46 K, Mass density=0.129 kg/m3	0.01205
366.97 K, Mass density=0.018 kg/m3	0.01208
367.44 K, Mass density=0.023 kg/m3	0.0121
380.14 K, Mass density=0.092 kg/m3	0.01257
380.24 K, Mass density=0.092 kg/m3	0.01257
380.61 K, Mass density=0.129 kg/m3	0.01257
380.86 K, Mass density=0.018 kg/m3	0.0126
380.91 K, Mass density=0.129 kg/m3	0.0126
381.03 K, Mass density=0.023 kg/m3	0.0126
382.98 K, Mass density=0.023 kg/m3	0.01267
384.22 K, Mass density=0.018 kg/m3	0.01273
394.56 K, Mass density=0.092 kg/m3	0.01311
394.75 K, Mass density=0.129 kg/m3	0.0131
394.87 K, Mass density=0.018 kg/m3	0.01313
395.16 K, Mass density=0.023 kg/m3	0.01312
408.37 K, Mass density=0.092 kg/m3	0.01363
408.69 K, Mass density=0.129 kg/m3	0.01365
409.25 K, Mass density=0.023 kg/m3	0.01365
410.22 K, Mass density=0.018 kg/m3	0.0137
422.63 K, Mass density=0.092 kg/m3	0.01418
423.17 K, Mass density=0.129 kg/m3	0.01421
423.35 K, Mass density=0.023 kg/m3	0.01419
423.87 K, Mass density=0.018 kg/m3	0.01423
437.65 K, Mass density=0.092 kg/m3	0.01479
437.93 K, Mass density=0.129 kg/m3	0.01479
438.48 K, Mass density=0.023 kg/m3	0.01478
438.75 K, Mass density=0.018 kg/m3	0.01482
466.44 K, Mass density=0.092 kg/m3	0.01596
466.96 K, Mass density=0.129 kg/m3	0.01598
468.21 K, Mass density=0.018 kg/m3	0.01601
468.74 K, Mass density=0.023 kg/m3	0.01598
496.27 K, Mass density=0.023 kg/m3	0.0171
496.94 K, Mass density=0.092 kg/m3	0.01723
497.01 K, Mass density=0.129 kg/m3	0.01727
497.08 K, Mass density=0.018 kg/m3	0.01723
